From patent US8519127B2, “Cyclic glycyl-2-allyl proline and its use in treatment of peripheral neuropathy” (priority 2003, dated 2013)

Assays:
cerebellar neurons = experiment: Cerebellar microexplants exposed to glutamate and 3-nitropropionic acid; live neurons with neurites counted; format: cell-based, rat; conditions: for number of cells having neurites: administered simultaneously with glutamate, FIG. 1 / FIG. 2; for glutamate-induced neurotoxicity: low doses (cG-2AllylP: 100 pm to 10 nm)
Description: Cover slips were placed into a large Petri dish and washed in 70% alcohol for 5 minutes, then washed with Millipore H2O. The cover slips were air dried, and coated with Poly-D-Lysine (1 mg/ml stock solution in PBS, 90-100 μl) for 2 hours at 34° C.
Postnatal day 8 Wistar rats were used for the study. The rats were sacrificed and placed in ice for 1 minute, decapitated and the cerebellum removed and placed on ice. Cerebellum tissue was placed in 1 ml of 0.65% glucose-supplemented PBS (10 μl 65% stock D (+)glucose/1 ml PBS) in a large Petri dish, chopped up into smaller sections and triturated with a 1 ml insulin syringe via a 23 G (0.4 mm) needle, and then squirted back into the glucose solution in the large Petri dish. The tissue was sieved through (125 μm pore size gauze) and centrifuged (2 minutes at 60 g) twice to exchange the medium into serum-free BSA-supplemented START V medium (Biochrom, Germany). The second centrifugation step was done with 1 ml of START V medium. The microexplants were reconstituted into 500 μl of START V medium and put on ice.
Two hours after PDL-coating, the slides were washed with Millipore H2O and air dried. Each slide was placed into a small Petri dish (diameter: 35 mm) and 40 μl of START V/cell suspension was added. The tissue was incubated for 2 hours at 34° C. (settlement period). START V-medium (1 ml) was then added to the Petri dish and cultivated at 34° C. in the presence of 5% CO2 in air at 100% humidity for 48 hours.
For the study, certain explant cultures were exposed to vehicle (PBS) only. In the first study (Study 1) 10 μl of toxin 1 (L-glutamate-100 mM in Millipore water; final concentration: 1 mM) and 10 μl of toxin 2 (3-nitropropionic acid-50 mM-pH 7-in Millipore water, final concentration: 0.5 mM) was applied simultaneously with the drug to be tested ([…]). In each case, the drugs were left in contact with the explants for the duration of the study.
After explants were exposed to drugs for the study period, cells were then rinsed in PBS and then fixed in increasing concentrations of paraformaldehyde (500 μl of 0.4% PFA was applied; then 1.2% PFA; then 3% PFA and finally 4% PFA (each fixation step: 2-3 minutes). Finally, the microexplants were rinsed in PBS.
Neurons in the explants were then evaluated for morphology (presence of neurites) and counted as live cells per microscopic field. Four fields displaying highest cell density were counted per cover slip and the data presented as mean±standard error of the mean (SEM); n=4 each. Statistical significance was evaluated by using the non-paired Student's t-test.

microglia = conditions: response to hypoxia-ischemia in rat model; cited from earlier work
[1] = system: pyridoxine-intoxicated rats; experiment: Pyridoxine-induced peripheral neuropathy: body weight and beam walk errors; format: in vivo, rat; conditions: for body weight (percentage of baseline weight): pyridoxine 400 mg/kg i.p. b.i.d. days 1-8, vs vehicle, FIG. 5
Description: […] Sprague-Dawley rats were habituated to walk across a wooden beam (4 cm diameter, 175 cm long, circular cross-section) over a training period of 8 days prior to initiating neuropathic toxicity treatment. Animals were weighed on the day prior to pyridoxine injection (mean body weight 270 g) and were randomized into treatment groups as follows: vehicle control (distilled water, n=16), 3 mg/kg cG-2-allylP (n=16) or 30 mg/kg cG-2-allylP (n=16). All groups received pyridoxine (400 mg/kg i.p.) 2/day for 8 days (days 1-8) and either vehicle or cG-2-allylP (3 or 30 mg/kg, p.o.) 1/day on days 1-10. Body weights were monitored throughout treatment and until study day 28. Beam walking was assessed on days 0 (baseline), 14, 21, and 28. Beam walk errors were assessed according to the method of Callizot (Callizot et al, Pyridoxine-Induced Neuropathy in Rats: a Sensory neuropathy that Responds to 4-methylcatechol, Neurobiol. Dis. 8:626-635 (2001.)) incorporated herein fully by reference. Each rat was scored for 7 steps taken in traversing the beam, as follows: 1=hind-paw placed on the top of the beam (normal); 2=paw contacted the lateral line of the beam; 3=paw overlapping the lateral line on the beam; 4=rat unable to place its feet on the beam. Rats that could walk across the beam therefore recorded a maximum functional deficit score of 28. Rats unable to take 7 steps along the beam scored 30, while rats unable to balance on the beam at all scored 32.
Two-way analysis of variance (ANOVA) was conducted on beam walk performance data, with time and treatment as variables, applying Bonferroni post-hoc tests to assess individual treatment condition differences. Statistical significance was assumed if p<0.05.

[2] = system: rats exposed to hypoxic-ischemic injury (HI); experiment: Hypoxic-ischemic injury (modified Levine model), histological tissue damage score; format: in vivo, rat
Description: To determine whether cG-2AllylP might prevent neuronal injury in response to stroke, cardiac arterial bypass graft surgery (CABG) or other hypoxic insults, a series of studies were carried out in rats that had been exposed to hypoxic-ischemic injury (HI). Adult rats (Wistar, 280-310 g, male) were used. The modified Levine model preparation and experimental procedures were used (Rice et al, 1981, Ann. Neural.: 9: 131-141; Guan et al J., 1993, Cereb. Blood Flow Metab.: 13(4): 609-16). These procedures in brief, consist of an HI injury induced by unilateral carotid artery ligation followed by inhalational asphyxia in the animals with an implanted lateral ventricular cannula. A guide cannula was stereotaxically placed on the top of the dura 1.5 mm to the right of the mid-line and 7.5 mm anterior to the interaural zero plane under halothane anaesthesia. The right carotid artery was double ligated two days after the cannulation. After 1 hour recovery from the anaesthesia, each of the rats were placed in an incubator where the humidity (90±5%) and temperature (31°±0.5° C.) were controlled for another hour, then exposed to hypoxia (6% oxygen) for 10 min, The animals were kept in the incubator for an additional 2 hours before treatment.
Nine pairs of rats were treated intracerebral ventricularly (icy) with either cG-2AllylP (2 ng) or its vehicle (normal saline) 2 hours after hypoxic-ischemic insult. Rats in each group were simultaneously infused with cG-2AllylP or its vehicle under light anaesthesia (1.5% halothane) 2 hours after the insult. […]
Coronal sections 8 μm in thickness were cut from the striatum, cerebral cortex and hippocampus and were stained with thionin and acid fuchsin. The histological outcome was assessed at three levels: (1) the mid level of the striatum, (2) where the completed hippocampus first appeared and (3) the level where the ventral horn of the hippocampus just appears. The severity of tissue damage was scored in the striatum, cortex and the CA1-2, CA3, CA4 and dentate gyrus of the hippocampus. […]

diabetic rats = experiment: Streptozotocin-induced diabetic neuropathy, tactile allodynia (von Frey hairs); format: in vivo, rat; conditions: 3-30 mg/kg p.o. 1/day for 14 days; STZ-diabetic rats
Description: Rats (225-250 g) are rendered diabetic by an i.p. injection of streptozotocin (STZ; 75 mg/kg). A diabetic condition is confirmed in each rat 10 days later by measurement of tail vein blood glucose levels. Only rats with a final blood glucose level>13.8 mM are considered diabetic and are included in the experiment.
Hyperglycemic, diabetic rats are dosed with cG-2-allylP (3-30 mg/kg, p.o. 1/day) from day 14 until day 28 (for a total of 14 days of treatment). Glucose measurements are taken on day 14 (pre-dose), day 21, day 28 and day 42.
Rats are tested for tactile allodynia on days 14 (pre-dose), and on days 16, 21, 28, 35 and 42 using van Frey hairs. Rats are tested for responsivity to von Frey hairs with calibrated bending forces of 1.5-15 g, to deliver punctate mechanical stimuli of varying intensities. Filaments exerting a force above 15 g are not used. Starting with the lowest filament force (1.5 g), von Frey hairs are applied to the plantar surface of the hind paw, with sufficient force to cause slight bending against the paw, and held for 1 s. Each stimulation is applied five times with an inter-stimulus interval of 5-10 s. Care is taken to stimulate random locations on the plantar surface. A positive response is noted if the paw was robustly and immediately withdrawn. […]

[3] = system: cleaved caspase-3 protein; conditions: rats exposed to hypoxia/ischaemia; cited from earlier work

Compound	number of cells having neurites (cerebellar neurons)	glutamate-induced neurotoxicity (cerebellar neurons)	loss of cerebellar neurons having neurites (cerebellar neurons; glutamate 1 mM, compared to vehicle-treated controls, FIG. 1) [%]	activation of microglia (microglia)	body weight (percentage of baseline weight) ([1]; 3 mg/kg p.o. 1/day days 1-10)	body weight (percentage of baseline weight) ([1]; 3 mg/kg p.o. 1/day days 1-10, listed as cG-2allylP)	body weight (percentage of baseline weight) ([1]; 30 mg/kg p.o. 1/day days 1-10)	body weight (percentage of baseline weight) ([1]; 30 mg/kg p.o. 1/day days 1-10, listed as cG-2allylP)	beam walking errors ([1]; 30 mg/kg p.o. days 1-10, test days 14, 21, 28, p<0.05 vs vehicle, FIG. 6)	tissue damage score ([2]; 2 ng icv 2 hours after hypoxic-ischemic insult, histology 5 days after injury, vs vehicle, p<0.001, FIG. 3)	neuronal damage scores ([2]; 2, 4, 20, 100 ng icv 2 hours after insult, all sites and doses other than 100 ng in striatum, FIG. 4)	efficacy by brain region ([2]; regions with progressive injury such as dentate gyrus and cerebral cortex, FIG. 4)	pain threshold in response to von Frey hair pressure to hind paws (diabetic rats)	expression of cleaved caspase-3 protein in the cerebral cortex [3]
C[C@@]12CCCN1C(=O)C1(CCCC1)NC2=O [Cyclic cyclopentyl-G-2MeP, (8aS)-Methyl-spiro[cyclopentane-1,3(4H)-tetrahydropyrrolo[1,2-a]pyrazine]-1,4(2H)-dione]	significantly increased the number of cells having neurites	significant decrease in glutamate-induced neurotoxicity	–	–	–	–	–	–	–	–	–	–	–	–
N[C@@H](CCC(=O)O)C(=O)O [Glutamate, L-glutamate, reference compound]	–	–	~85	–	–	–	–	–	–	–	–	–	–	–
C=CC[C@]12CCCN1C(=O)CNC2=O [cG-2-allylP, (8aS)-Allyl-hexahydropyrrolo[1,2-a]pyrazine-1,4-dione]	significantly increased the numbers of cells having neurites in a dose-dependent manner	significant decrease in glutamate-induced neurotoxicity	–	reduce activation of microglia	significantly attenuated the effect of pyridoxine on body weight on test day 9	greater gain of body weight than in animals treated with pyridoxine alone	significantly attenuate pyridoxine-mediated body weight loss on days 9, 14, 21 and 28	greater gain of body weight than in animals treated with pyridoxine alone	effectively prevented pyridoxine-induced beam walking errors	significantly reduced the tissue damage in each brain region examined	lessened the neural damage effects of hypoxia/ischemia	increased efficacy in brain regions that experienced progressive injury associated with delayed cell death	increase the pain threshold	decreased expression of cleaved caspase-3 protein in the cerebral cortex
